Measurements taken from publication PMC10468942, “A Fluorescent Probe as a Lead Compound for a Selective α-Synuclein PET Tracer: Development of a Library of 2-Styrylbenzothiazoles and Biological Evaluation of [^18F]PFSB and [^18F]MFSB” (ACS Omega, 2023).
Like-named read-outs stand apart in the source and are kept apart here.

Key:
αSYN fibrils [1] = target: αSYN fibrils; set-up: method as in PMID 33819025; settings: fluorescence titration; cited from earlier work
αSYN fibrils [2] = target: T1, αSYN fibrils (Homo sapiens, UniProt P37840); assay: [^3H]PiB competition binding assay on αSYN fibrils
T1 construct: cloning of the DNA construct encoding full-length αSYN into the pET-22b vector; made in house; host or cells: Escherichia coli BL21
Experimental: Following the cloning of the DNA construct encoding full-length αSYN into the pET-22b vector and its transformation into BL21 cells, the expression of human αSYN from a prokaryotic host was induced overnight in Escherichia coli at 20 °C with 0.5 mM IPTG. The cells were harvested by centrifugation, resuspended in 20 mM Tris-HCl pH 7.6, 25 mM NaCl and 1× complete protease inhibitor (Roche, Basel, Switzerland), and lysed by sonication. […] Anion exchange chromatography (HiTrap Q, GE Healthcare, Chicago, Illinois) was used to trap the produced αSYN, which was eluted with NaCl 0.1 M over 20 column volumes. Fractions containing αSYN were concentrated and further purified through a Superdex 75 SEC column equilibrated with PBS. […] A 4 mg/mL solution of αSYN in 20 mM K3PO4 pH 9.1 was placed in an orbital shaker at 37 °C, 1000 rpm for 5 days to prepare P91s. The assemblies were either sonicated with cycles of 20 s on and 10 s off at 50% amplitude (Q800R3, Qsonica) for a total of 10 min or directly aliquoted in volumes of 10 μL each stored at −80 °C until use. […] The final products were aliquoted, frozen on dry ice, and stored at −80 °C until use.
Concentrations of αSYN and Aβ1-42 fibrils were as described above.
Plates were incubated on a shaker (MaxQ 6000, Thermo Fisher Scientific, Inc., Marietta, OH) at 50 rpm for 2 h at 37 °C, covered by removable sealing tapes (PerkinElmer, Waltham, MA). Vacuum filtration and read-out were performed as previously reported.[17] […] Data points were fitted using nonlinear regression analysis in GraphPad Prism (GraphPad Software, Inc., Version 8.4.0, La Jolla).

Q: Which Kd (αSYN fibrils [1]) does the source give for `CN1CCN(c2ccc(C=Cc3sc4ccccc4[n+]3C)cc2)CC1` [RB2, 3-Methyl-2-(4-(4-methylpiperazin-1-yl)styryl)benzo[d]thiazol-3-ium Iodide, reference compound] here?
A: Its Kd is 4.4 ± 0.5 µM.

Q: What about the Ki (αSYN fibrils [2]; Ki-RB2, αSYN [^3H]PiB competition) of the same molecule?
A: The Ki was 333 µM.

Q: And the Ki (αSYN fibrils [2]; methylated compounds, Table 2, two values in a cell = single determinations, read-out: Ki)?
A: The Ki was over 0.4 µM.
